Here are results for nine molecules from ChEMBL document CHEMBL1201862, “PubChem BioAssay data set” (2004).

Among the test systems are A498; ACHN; COLO 205; HCT-15; HOP-92; HT-29; IGROV-1; RPMI-8226; SF-539; SK-MEL-28; SK-MEL-2; SK-MEL-5; SR; CCRF-CEM; K562; SNB-19; RXF 393; UACC-62.
Common to all, as to test: NCI tumour cell line growth inhibition, 48 h

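Grown in 96-well plates, cells were treated for 48 hours with each compound at five concentrations. Insufficient inhibition: endpoint recorded as highest concentration tested. The concentration for 50% growth inhibition is given as GI50.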 Active and inactive are the calls of the source. Cut-off read from the data, not from the text of the source: active = GI50 up to about 1.1 µM and inactive = higher.

Consider `O=[N+]([O-])c1cccc(C2=NOC3C4CCC(C4)C23)c1` (stereo not drawn), for which the GI50 is > 100 µM (inactive) with A498; > 100 µM (inactive) with ACHN; > 100 µM (inactive) in the test on COLO 205; over 100 µM with HCT-15; > 100 µM (inactive) in the test with HOP-92; > 100 µM (inactive) in the test with HT-29. Besides, the GI50 in the test on IGROV-1, in the test on RPMI-8226, in the test on SF-539, in the test on SK-MEL-28, in the test on SK-MEL-2 and in the test on SK-MEL-5 was > 100 µM (inactive) in each case. Further, the GI50 in the test with SR is > 100 µM (inactive).
For the molecule `CC1=NN(C(=O)Cc2ccccc2)C(=O)/C1=C\c1ccco1`, the GI50 with ACHN was > 100 µM (inactive); with CCRF-CEM, > 100 µM (inactive); in the test on COLO 205 it was > 100 µM (inactive); in the test on HCT-15 it was over 100 µM; in the test with HT-29, > 100 µM (inactive); in the test with K562, > 100 µM (inactive). Also, the GI50 in the test with RPMI-8226, in the test with SF-539, in the test with SK-MEL-28, with SK-MEL-2, with SK-MEL-5 and with SNB-19 was > 100 µM (inactive) in each case. For the same molecule, the GI50 with SR was > 100 µM (inactive).
With `COC(=O)CCC(NC(=S)N/N=C(\C)c1cnc2ccccc2n1)C(=O)OC` (stereo not drawn), the GI50 in the test on A498 was 92.9 µM (inactive); with ACHN, 20.6 µM (inactive); in the test on CCRF-CEM, 3.29 µM (inactive); in the test on COLO 205, 2.55 µM (inactive); in the test on HCT-15, 35.1 µM; in the test on HT-29, 14.2 µM (inactive). For the same molecule, the GI50 with IGROV-1 was 35.4 µM (inactive); in the test with K562 it was 10.1 µM (inactive); in the test with RPMI-8226, 11.1 µM (inactive); in the test with RXF 393, 30.2 µM (inactive); with SF-539 it was 41.8 µM (inactive); with SK-MEL-28, 40.9 µM (inactive). Moreover, the GI50 with SK-MEL-2 is 56.8 µM (inactive); in the test on SK-MEL-5, 21.2 µM (inactive); with SNB-19 it was > 100 µM (inactive); in the test with SR it was 15.1 µM (inactive); in the test with UACC-62, 16.9 µM (inactive).
For the molecule `NCCSc1nc(N)c2ncn(C3OC(CO)C(O)C3O)c2n1` (stereo not drawn), the GI50 with A498 is > 100 µM (inactive); in the test with ACHN, > 100 µM (inactive); in the test with CCRF-CEM, > 100 µM (inactive); in the test on COLO 205, > 100 µM (inactive); with HCT-15 it was over 100 µM; in the test on HOP-92, > 100 µM (inactive). Further, the GI50 in the test with HT-29, with IGROV-1, in the test on K562, in the test on RPMI-8226, with SF-539 and in the test on SK-MEL-28 was > 100 µM (inactive) each time. The GI50 in the test on SK-MEL-2, with SK-MEL-5, with SNB-19, in the test with SR and with UACC-62 was > 100 µM (inactive) throughout.
On to `Oc1cc(-c2ccccn2)nc2cccc(F)c12`, for which the GI50 with ACHN, in the test with CCRF-CEM, in the test on COLO 205, with HOP-92, with HT-29 and with IGROV-1 was > 100 µM (inactive) throughout. Moreover, the GI50 in the test on K562 is > 100 µM (inactive); in the test with RPMI-8226, > 100 µM (inactive); with RXF 393 it was > 100 µM (inactive); with SF-539, > 100 µM (inactive); with SK-MEL-28 it was 0.644 µM (active); in the test on SK-MEL-5 it was 61.4 µM (inactive). In addition, the GI50 is > 100 µM (inactive) in the test with SNB-19, > 100 µM (inactive) in the test on SR and 95.3 µM (inactive) in the test on UACC-62.
As to `COc1ccc2nc(-c3ccc(OCc4ccccc4)cc3)ccc2c1`, the GI50 in the test on ACHN, with CCRF-CEM, with COLO 205, in the test with HOP-92, with HT-29 and in the test with IGROV-1 was > 100 µM (inactive) in each case. In addition, the GI50 in the test with K562, in the test on RPMI-8226, in the test on RXF 393, in the test with SF-539, in the test with SK-MEL-28 and in the test on SK-MEL-5 was > 100 µM (inactive) each time. For the same molecule, the GI50 with SNB-19, in the test on SR and with UACC-62 was > 100 µM (inactive) throughout.
`Cc1c(C(=O)/C=C/c2ccco2)[n+]([O-])c2ccccc2[n+]1[O-]`: the GI50 is > 100 µM (inactive) in the test on A498; > 100 µM (inactive) with ACHN; 36.1 µM (inactive) with CCRF-CEM; > 100 µM (inactive) in the test with COLO 205; 45.4 µM (inactive) with HOP-92; > 100 µM (inactive) in the test with HT-29. The GI50 in the test with IGROV-1 is > 100 µM (inactive); in the test on K562, 56.4 µM (inactive); in the test with RPMI-8226, 41.8 µM (inactive); in the test on RXF 393, > 100 µM (inactive); in the test with SF-539, > 100 µM (inactive); in the test with SK-MEL-28, > 100 µM (inactive). Also, the values for the GI50 in the test with SNB-19, in the test with SR and with UACC-62 were > 100 µM (inactive), 55.2 µM (inactive) and > 100 µM (inactive), respectively.
With `CCc1cccc(C(C)CC)c1NC(=O)C(=O)Cc1nc2ccccc2o1` (stereo not drawn), the GI50 in the test on A498 was > 50 µM (inactive); in the test on ACHN, > 50 µM (inactive); with CCRF-CEM it was > 50 µM (inactive); with COLO 205, > 50 µM (inactive); in the test on HCT-15 it was over 50 µM; with HOP-92, > 50 µM (inactive). For the same molecule, the GI50 in the test with HT-29, in the test on IGROV-1, in the test with K562, in the test on RPMI-8226, in the test on RXF 393 and in the test on SF-539 was > 50 µM (inactive) throughout. The GI50 in the test on SK-MEL-28, with SK-MEL-2, in the test on SK-MEL-5, with SNB-19 and in the test on UACC-62 was > 50 µM (inactive) each time.
`COc1ccc(C(=O)Cc2c(C(=O)c3ccccc3)c3ccccc3n2C(=O)c2ccccc2)cc1`: the GI50 in the test on ACHN is 53 µM (inactive); with CCRF-CEM it was 46.6 µM (inactive); in the test on COLO 205 it was > 100 µM (inactive); in the test with HCT-15, 46 µM; in the test with HOP-92 it was 25.2 µM (inactive); with HT-29, > 100 µM (inactive). Further, the GI50 with IGROV-1 was > 100 µM (inactive); in the test with K562, 51.3 µM (inactive); with RPMI-8226 it was 11.9 µM (inactive); with SF-539, > 100 µM (inactive); in the test on SK-MEL-28, > 100 µM (inactive); with SK-MEL-2 it was > 100 µM (inactive). Moreover, the GI50 is 17.7 µM (inactive) in the test with SK-MEL-5, 92 µM (inactive) in the test on SNB-19, 23.8 µM (inactive) with SR and 94 µM (inactive) in the test on UACC-62.
